This is an account of results in PMC4457528, “Identification of Novel Small Molecule Inhibitors of Oncogenic RET Kinase” (PLoS ONE, 2015).

Read-outs that look alike come from different tables or passages of the source.

Holding throughout (experiment): KinomeScan kinase panel, single concentration 10 µM
Type in all cases: binding

Assay [1] deals with T1, KinomeScan kinase panel (Homo sapiens, UniProt Q9UBE8).
T1 construct: purchased DiscoveRx (KinomeScan)
T1 sequence (Q9UBE8 1-527): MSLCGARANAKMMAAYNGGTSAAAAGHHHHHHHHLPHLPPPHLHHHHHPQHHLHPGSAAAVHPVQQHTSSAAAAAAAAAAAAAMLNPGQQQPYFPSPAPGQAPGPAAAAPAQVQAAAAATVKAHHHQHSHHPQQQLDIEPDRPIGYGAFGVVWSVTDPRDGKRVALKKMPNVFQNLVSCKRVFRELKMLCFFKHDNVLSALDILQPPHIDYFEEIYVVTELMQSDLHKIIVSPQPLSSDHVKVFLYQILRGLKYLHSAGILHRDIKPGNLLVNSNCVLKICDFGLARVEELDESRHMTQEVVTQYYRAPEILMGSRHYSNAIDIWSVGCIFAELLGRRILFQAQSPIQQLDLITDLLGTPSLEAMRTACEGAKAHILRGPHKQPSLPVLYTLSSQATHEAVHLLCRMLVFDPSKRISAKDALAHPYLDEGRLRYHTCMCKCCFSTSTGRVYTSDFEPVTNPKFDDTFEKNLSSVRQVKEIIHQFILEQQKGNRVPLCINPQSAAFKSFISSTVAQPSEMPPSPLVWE
The note with it: NLK, 10 µM; read-out: score (%).

The target of assay [2] is T2, KinomeScan kinase panel (Homo sapiens, UniProt P07949, M918T).
T2 construct: purchased DiscoveRx (KinomeScan)
T2 sequence (P07949 29-1114 M918T): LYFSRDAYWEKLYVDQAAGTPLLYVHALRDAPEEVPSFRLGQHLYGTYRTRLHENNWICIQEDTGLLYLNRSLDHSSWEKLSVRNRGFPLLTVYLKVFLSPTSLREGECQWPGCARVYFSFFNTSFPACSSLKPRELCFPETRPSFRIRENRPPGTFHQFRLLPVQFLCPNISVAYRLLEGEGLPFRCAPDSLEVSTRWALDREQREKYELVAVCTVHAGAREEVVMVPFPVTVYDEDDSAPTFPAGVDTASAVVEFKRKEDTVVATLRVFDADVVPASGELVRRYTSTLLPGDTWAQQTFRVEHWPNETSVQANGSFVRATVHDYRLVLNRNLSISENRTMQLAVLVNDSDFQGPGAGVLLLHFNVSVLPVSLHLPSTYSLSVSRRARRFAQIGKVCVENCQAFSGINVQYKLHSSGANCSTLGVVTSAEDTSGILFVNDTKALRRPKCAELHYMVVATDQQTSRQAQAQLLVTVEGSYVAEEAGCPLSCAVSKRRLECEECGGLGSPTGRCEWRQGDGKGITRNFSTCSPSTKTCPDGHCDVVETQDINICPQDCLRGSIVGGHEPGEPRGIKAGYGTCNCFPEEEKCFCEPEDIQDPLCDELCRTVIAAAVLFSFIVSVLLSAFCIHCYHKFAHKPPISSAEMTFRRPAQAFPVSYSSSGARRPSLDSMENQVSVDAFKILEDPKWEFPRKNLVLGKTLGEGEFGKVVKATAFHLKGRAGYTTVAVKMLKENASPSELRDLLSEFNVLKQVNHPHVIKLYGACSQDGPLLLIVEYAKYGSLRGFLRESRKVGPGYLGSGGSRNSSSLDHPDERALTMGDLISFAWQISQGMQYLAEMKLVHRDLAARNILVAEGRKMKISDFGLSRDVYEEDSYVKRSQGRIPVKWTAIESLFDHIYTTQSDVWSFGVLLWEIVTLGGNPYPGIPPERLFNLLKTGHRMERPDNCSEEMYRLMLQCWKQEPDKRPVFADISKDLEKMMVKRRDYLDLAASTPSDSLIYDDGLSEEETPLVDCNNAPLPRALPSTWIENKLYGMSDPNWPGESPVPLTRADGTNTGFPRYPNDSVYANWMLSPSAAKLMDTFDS
The settings on record: read-out: score (%).

The target of assay [3] is T3, KinomeScan kinase panel (Homo sapiens, UniProt P36888, D835H).
T3 construct: purchased DiscoveRx (KinomeScan)
T3 sequence (P36888 27-993 D835H): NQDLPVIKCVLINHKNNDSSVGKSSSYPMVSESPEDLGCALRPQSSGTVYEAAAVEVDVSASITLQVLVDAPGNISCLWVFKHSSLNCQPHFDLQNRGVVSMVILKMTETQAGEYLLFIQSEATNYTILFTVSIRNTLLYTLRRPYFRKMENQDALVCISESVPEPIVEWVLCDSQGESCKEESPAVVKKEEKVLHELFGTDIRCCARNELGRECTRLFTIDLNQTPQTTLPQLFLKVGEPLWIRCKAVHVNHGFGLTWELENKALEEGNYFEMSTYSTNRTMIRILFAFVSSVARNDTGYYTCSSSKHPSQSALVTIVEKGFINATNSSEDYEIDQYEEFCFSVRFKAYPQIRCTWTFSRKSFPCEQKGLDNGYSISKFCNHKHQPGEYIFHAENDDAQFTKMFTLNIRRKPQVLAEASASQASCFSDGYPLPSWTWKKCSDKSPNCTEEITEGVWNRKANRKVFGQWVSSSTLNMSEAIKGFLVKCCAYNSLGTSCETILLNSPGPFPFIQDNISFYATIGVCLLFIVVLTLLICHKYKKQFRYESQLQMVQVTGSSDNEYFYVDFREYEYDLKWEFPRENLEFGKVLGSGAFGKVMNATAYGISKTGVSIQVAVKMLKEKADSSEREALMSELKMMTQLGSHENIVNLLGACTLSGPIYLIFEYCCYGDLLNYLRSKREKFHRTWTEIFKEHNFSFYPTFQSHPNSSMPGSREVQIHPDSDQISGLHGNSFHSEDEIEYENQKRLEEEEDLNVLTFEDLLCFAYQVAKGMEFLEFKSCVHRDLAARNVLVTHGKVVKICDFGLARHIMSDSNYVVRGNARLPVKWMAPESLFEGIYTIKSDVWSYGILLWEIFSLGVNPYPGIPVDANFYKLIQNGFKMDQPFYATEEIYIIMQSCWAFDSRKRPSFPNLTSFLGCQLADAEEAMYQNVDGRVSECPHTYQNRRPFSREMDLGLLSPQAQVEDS
The settings on record: FLT3(D835H), 10 µM; read-out: score (%).

Assay [4] concerns the target T4, KinomeScan kinase panel (Homo sapiens, UniProt O14976).
T4 construct: purchased DiscoveRx (KinomeScan)
T4 sequence (O14976 1-1311): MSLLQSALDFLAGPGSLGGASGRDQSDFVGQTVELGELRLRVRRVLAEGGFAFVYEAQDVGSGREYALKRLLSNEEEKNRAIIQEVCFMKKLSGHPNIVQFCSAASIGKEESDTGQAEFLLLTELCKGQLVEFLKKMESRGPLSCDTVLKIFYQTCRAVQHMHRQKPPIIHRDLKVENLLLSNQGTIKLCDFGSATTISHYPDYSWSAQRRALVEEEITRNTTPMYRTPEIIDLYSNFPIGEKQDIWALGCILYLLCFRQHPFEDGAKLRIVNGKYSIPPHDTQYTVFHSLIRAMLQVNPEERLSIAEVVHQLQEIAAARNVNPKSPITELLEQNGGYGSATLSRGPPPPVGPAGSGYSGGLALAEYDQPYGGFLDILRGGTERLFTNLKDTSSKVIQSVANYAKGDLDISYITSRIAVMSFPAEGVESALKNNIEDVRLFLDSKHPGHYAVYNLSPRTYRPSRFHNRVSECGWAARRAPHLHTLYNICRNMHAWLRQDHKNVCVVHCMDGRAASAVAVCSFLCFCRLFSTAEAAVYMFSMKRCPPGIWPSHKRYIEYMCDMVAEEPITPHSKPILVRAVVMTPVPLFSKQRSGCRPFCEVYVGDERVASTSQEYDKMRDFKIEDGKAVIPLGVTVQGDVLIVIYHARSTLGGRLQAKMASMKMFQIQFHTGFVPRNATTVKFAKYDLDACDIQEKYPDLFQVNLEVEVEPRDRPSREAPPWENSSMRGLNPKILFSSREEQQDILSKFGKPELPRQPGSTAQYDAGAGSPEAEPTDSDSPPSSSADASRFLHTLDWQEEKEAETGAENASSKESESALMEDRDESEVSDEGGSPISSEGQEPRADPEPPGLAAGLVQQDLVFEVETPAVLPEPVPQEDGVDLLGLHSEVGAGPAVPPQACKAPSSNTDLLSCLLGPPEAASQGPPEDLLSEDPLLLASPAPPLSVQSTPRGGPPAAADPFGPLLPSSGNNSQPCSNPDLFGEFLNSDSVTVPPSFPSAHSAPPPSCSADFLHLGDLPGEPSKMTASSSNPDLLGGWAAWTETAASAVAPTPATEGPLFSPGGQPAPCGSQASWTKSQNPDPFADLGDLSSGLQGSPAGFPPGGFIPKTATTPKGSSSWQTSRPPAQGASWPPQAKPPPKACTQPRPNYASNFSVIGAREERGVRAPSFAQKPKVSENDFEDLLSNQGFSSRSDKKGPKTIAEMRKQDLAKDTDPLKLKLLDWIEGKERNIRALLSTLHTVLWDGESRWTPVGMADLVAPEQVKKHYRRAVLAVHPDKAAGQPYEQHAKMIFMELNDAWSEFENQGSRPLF
The settings on record: GAK, 10 µM; read-out: score (%).

The target in assay [5] is T5, KinomeScan kinase panel (Homo sapiens, UniProt P08631).
T5 construct: purchased DiscoveRx (KinomeScan)
T5 sequence (P08631 whole entry): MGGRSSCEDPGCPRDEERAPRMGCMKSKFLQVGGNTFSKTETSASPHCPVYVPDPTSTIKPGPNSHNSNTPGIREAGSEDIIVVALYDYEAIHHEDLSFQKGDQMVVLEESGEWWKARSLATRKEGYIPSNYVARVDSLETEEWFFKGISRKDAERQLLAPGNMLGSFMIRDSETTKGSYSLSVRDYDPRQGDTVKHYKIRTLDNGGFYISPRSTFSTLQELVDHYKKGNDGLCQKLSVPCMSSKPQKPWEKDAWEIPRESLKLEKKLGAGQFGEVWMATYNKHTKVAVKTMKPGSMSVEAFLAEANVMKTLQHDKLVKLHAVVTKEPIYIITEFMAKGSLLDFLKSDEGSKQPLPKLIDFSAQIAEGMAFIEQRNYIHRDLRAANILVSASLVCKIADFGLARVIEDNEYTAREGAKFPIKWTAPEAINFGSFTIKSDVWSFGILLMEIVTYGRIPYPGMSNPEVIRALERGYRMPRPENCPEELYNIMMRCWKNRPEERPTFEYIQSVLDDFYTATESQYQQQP
The settings on record: HCK, 10 µM; read-out: score (%).

Take `CCN1CCN(Cc2ccc(NC(=O)c3ccc(C)c(NC(=O)c4cncc(-c5cccs5)c4)c3)cc2C(F)(F)F)CC1` [ALW-II-41-27]: the remaining binding at 10 µM turned out to be 7.2% on KinomeScan kinase panel [1]; 0% on KinomeScan kinase panel [2]; 1.4% on KinomeScan kinase panel [3]; 1.6% on KinomeScan kinase panel [4]; 0.2% on KinomeScan kinase panel [5].

With `CCN1CCN(Cc2ccc(NC(=O)c3ccc(C)c(/C=C/c4cnc5[nH]ccc5c4Cl)c3)cc2C(F)(F)F)CC1` [HG-6-63-01, (E)-3-(2-(4-chloro-1H-pyrrolo[2,3-b]pyridin-5-yl)vinyl)-N-(4-((4-ethylpiperazin-1-yl)methyl)-3-(trifluoromethyl)phenyl)-4-methylbenzamide], the remaining binding at 10 µM at KinomeScan kinase panel [1] was determined as 6.8%; on KinomeScan kinase panel [2] (RET(M918T), 10 µM) it was 0%; at KinomeScan kinase panel [3], 0.1%; at KinomeScan kinase panel [4], 4.3%; at KinomeScan kinase panel [5] it was 0.3%.

For the compound `CCN1CCN(Cc2ccc(NC(=O)c3ccc(C)c(C#Cc4cccnc4)c3)cc2C(F)(F)F)CC1` [XMD15-44], the remaining binding at 10 µM was found to be 8.2% at KinomeScan kinase panel [1]; 0% at KinomeScan kinase panel [2] (kinase RET(M918T), 10 µM); 0.15% at KinomeScan kinase panel [3]; 7.4% at KinomeScan kinase panel [4]; 0.05% at KinomeScan kinase panel [5].
